Values of other authors, collected in publication PMC7395068, “The evolution of strategies to minimise the risk of human drug-induced liver injury (DILI) in drug discovery and development” (Archives of Toxicology, 2020).
Where a name gives a salt, the structure may show the parent alone. Read-outs that look alike come from different tables or passages of the source.

Tests used:
PHH spheroids = conditions: In vitro Assay; ref Vorrink 2018; cited from earlier work
hu-MPCC = conditions: In vitro Assay; ref Khetani 2012; cited from earlier work
RMPCC's [1] = conditions: In vitro Assay; ref Khetani 2012; cited from earlier work
[2] = cited from earlier work
human hepatocytes = conditions: In vitro Assay; ref Xu 2008; cited from earlier work
rBsep = conditions: In vitro Assay; ref Dawson 2012; cited from earlier work
[3] = system: isolated mouse liver mitochondria; conditions: In vitro Assay; ref Porceddu 2012; cited from earlier work
HepG2 cells [4] = conditions: In vitro Assay; ref O'Brien 2006; cited from earlier work
HepG2 cells [5] = conditions: In vitro Assay; ref Tolosa 2012; cited from earlier work
PHH = conditions: In vitro Assay; ref Proctor 2017; cited from earlier work
hLiMTs = conditions: In vitro Assay; ref Proctor 2017; cited from earlier work
Upcyte human hepatocytes = conditions: In vitro Assay; ref Tolosa 2019; cited from earlier work
HepG2 cells [6] = conditions: In vitro Assay; ref Persson 2013; cited from earlier work
RMPCC's [7] = conditions: In vitro Assay; ref Khetani 2012; cited from earlier work; remark: listed apart in the source
[8] = system: HepG2 cells, primary human hepatocytes; conditions: In vitro Assay; ref Garside 2014; cited from earlier work
[9] = ref Chen 2011; cited from earlier work
[10] = ref Chen 2016; cited from earlier work

SMILES: CNCCc1ccccn1 [betahistine]
- hLiMTs ATP <20 x Cmax (PHH spheroids): -VE
- HMPCC's (hu-MPCC): -VE
- RMPCC's (RMPCC's [1]): -VE
- In vivo DILI ([2]; ref Khetani 2012): +VE
- In vivo DILI ([2]; ref Vorrink 2018): +VE
- In vivo DILI ([2]; ref Xu 2008): +VE
- Structural based (HCI) (human hepatocytes): -VE

SMILES: CCN(CC)CCOc1ccc(C(=C(Cl)c2ccccc2)c2ccccc2)cc1 [clomiphene citrate]
- HMPCC's (hu-MPCC): -VE
- RMPCC's (RMPCC's [1]): -VE
- In vivo DILI ([2]; ref Khetani 2012): +VE
- In vivo DILI ([2]; ref Xu 2008): +VE
- Structural based (HCI) (human hepatocytes): -VE

SMILES: CC(=O)O[C@]1(C(C)=O)CC[C@H]2[C@@H]3C=C(Cl)C4=CC(=O)[C@@H]5C[C@@H]5[C@]4(C)[C@H]3CC[C@@]21C [cyproterone acetate]
- HMPCC's (hu-MPCC): +VE
- RMPCC's (RMPCC's [1]): +VE
- In vivo DILI ([2]; […]): +VE
- In vivo DILI ([2]; ref Khetani 2012): +VE
- In vivo DILI ([2]; ref Xu 2008): +VE
- Structural based (HCI) (human hepatocytes): -VE

SMILES: C[C@@H]1C[C@H]2[C@@H]3CCC4=CC(=O)C=C[C@]4(C)[C@@]3(F)[C@@H](O)C[C@]2(C)[C@@]1(O)C(=O)CO [dexamethasone]
- Inhibition of rBsep cutoff<1& cmax u>.2 (rBsep): -VE
- Inhibition of rBsep cutoff<3 (rBsep): +VE
- in vitro data EC2<=1x Cmax [3]: -VE
- in vitro data EC20<=2uM [3]: -VE
- Structural based (HCI) (HepG2 cells [4]): -VE
- Structural based (HCI) (HepG2 cells [5]): -VE
- PHH ATP <100uM (PHH): -VE
- HMPCC's (hu-MPCC): -VE
- hLiMTs ATP <100uM (hLiMTs): -VE
- Upcytes multi donor assay 14day data (Upcyte human hepatocytes): -VE
- Cluser analysis (HepG2 cells [6]): -VE
- Structural based (HCI) (HepG2 cells [6]): -VE
- RMPCC's (RMPCC's [7]): -VE
- Cluster 1-6 +VE Assay [8]: -VE
- In vivo DILI ([2]; […]): -VE
- In vivo DILI ([2]; ref Dawson 2012): -VE
- In vivo DILI ([2]; ref Garside 2014): -VE
- In vivo DILI ([2]; ref Gustafsson 2014): -VE
- In vivo DILI ([2]; ref Khetani 2012): -VE
- In vivo DILI ([2]; ref O'Brien 2006): -VE
- In vivo DILI ([2]; ref Persson 2013): -VE
- In vivo DILI ([2]; ref Porceddu 2012): +VE
- In vivo DILI ([2]; ref Proctor 2017): -VE
- In vivo DILI ([2]; ref Tolosa 2012): -VE
- In vivo DILI ([2]; ref Tolosa 2019): -VE
- In vivo DILI ([2]; ref Williams 2019): -VE
- In vivo DILI ([2]; ref Xu 2008): -VE
- DILI Score (FDA) (1-8) [9]: 3
- DILI +VE (5-8), DILI -VE (-4) [10]: -VE
- DILI severity category [10]: Ambiguous DILI-concern
- Structural based (HCI) (human hepatocytes): -VE
